The text below walks through data of ChEMBL document CHEMBL4270552, “4-(Phenoxy) and 4-(benzyloxy)benzamides as potent and selective inhibitors of mono-ADP-ribosyltransferase PARP10/ARTD10” (Eur J Med Chem, 2018).

What is called ΔTm is the change in melting temperature against a reference sample.

A value given as a limit tells only on which side of the number the result lay.

Sequence of Poly [ADP-ribose] polymerase 2 (Q9UGN5 whole entry, the tested form may be a part): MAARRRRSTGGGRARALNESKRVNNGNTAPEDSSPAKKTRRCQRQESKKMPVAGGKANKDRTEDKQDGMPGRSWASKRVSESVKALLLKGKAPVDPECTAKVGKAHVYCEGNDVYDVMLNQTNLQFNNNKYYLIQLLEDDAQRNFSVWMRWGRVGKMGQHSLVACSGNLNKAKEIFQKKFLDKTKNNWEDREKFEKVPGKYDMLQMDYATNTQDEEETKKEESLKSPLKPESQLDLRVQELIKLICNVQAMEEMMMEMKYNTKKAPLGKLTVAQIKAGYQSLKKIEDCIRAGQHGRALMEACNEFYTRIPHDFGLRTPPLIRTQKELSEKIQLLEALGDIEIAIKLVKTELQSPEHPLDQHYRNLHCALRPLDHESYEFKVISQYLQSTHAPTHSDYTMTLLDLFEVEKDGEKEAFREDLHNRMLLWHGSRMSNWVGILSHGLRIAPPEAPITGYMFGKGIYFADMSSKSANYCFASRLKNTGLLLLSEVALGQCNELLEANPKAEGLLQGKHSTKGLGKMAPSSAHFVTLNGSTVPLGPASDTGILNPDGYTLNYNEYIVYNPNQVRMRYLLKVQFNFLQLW

In one experiment the target is T1, Protein mono-ADP-ribosyltransferase PARP10 (Homo sapiens, UniProt Q53GL7).
T1 sequence (Q53GL7 whole entry): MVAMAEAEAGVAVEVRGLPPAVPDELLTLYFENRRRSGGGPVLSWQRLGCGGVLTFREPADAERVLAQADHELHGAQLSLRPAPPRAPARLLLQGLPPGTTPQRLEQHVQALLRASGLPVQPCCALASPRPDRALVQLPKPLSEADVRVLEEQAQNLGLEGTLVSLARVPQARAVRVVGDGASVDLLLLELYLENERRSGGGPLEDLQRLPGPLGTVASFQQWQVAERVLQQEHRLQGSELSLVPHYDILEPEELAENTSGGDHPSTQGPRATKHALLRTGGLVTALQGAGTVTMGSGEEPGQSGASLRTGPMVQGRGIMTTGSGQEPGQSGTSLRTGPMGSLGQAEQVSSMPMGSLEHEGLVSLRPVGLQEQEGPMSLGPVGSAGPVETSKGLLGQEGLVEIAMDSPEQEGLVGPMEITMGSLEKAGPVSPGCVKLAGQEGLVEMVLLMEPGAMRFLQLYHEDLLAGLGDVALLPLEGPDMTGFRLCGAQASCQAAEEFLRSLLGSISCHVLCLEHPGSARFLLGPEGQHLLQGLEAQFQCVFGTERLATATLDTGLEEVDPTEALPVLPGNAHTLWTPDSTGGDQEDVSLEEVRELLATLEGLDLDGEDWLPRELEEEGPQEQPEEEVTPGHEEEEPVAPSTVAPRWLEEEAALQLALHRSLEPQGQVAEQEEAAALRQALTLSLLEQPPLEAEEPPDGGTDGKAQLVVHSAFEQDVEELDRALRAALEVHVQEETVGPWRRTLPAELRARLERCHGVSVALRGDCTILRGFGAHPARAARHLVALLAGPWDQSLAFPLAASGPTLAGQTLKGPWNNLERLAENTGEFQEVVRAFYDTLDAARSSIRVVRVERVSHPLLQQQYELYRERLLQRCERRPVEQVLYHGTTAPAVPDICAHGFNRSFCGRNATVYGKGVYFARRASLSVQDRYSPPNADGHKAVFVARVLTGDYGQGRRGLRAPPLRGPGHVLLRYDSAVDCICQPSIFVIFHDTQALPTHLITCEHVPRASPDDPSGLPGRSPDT
The experiment is described as follows: Inhibition of C-terminal His-tagged human ARTD10 (809 to 1017 residues) expressed in Escherichia coli Rosetta2 (DE3) using SRPK2 as substrate after 13 hrs in presence of NAD+. The note with it: read-out: IC50.
With `COc1ccc(C(N)=O)cc1`, the IC50 amounted to 2800 nM.
As to `NC(=O)c1ccc(OCc2ccccc2F)cc1`, the IC50 is 230 nM.
Turning to `NC(=O)c1ccc(Oc2ccc(C=O)cc2)cc1`, the IC50 was 710 nM.
For `NC(=O)c1ccc(Oc2ccc(C(=O)O)cc2)cc1`, the IC50 was determined as 180 nM.

Staying with this experiment, now noted: read-out: pIC50 (converted).
As for `COc1ccc(C(N)=O)cc1`, the IC50 was 2750 nM.
For `NC(=O)c1ccc(OCc2ccccc2F)cc1`, the IC50 was 234 nM.
For `NC(=O)c1ccc(Oc2ccc(C(=O)O)cc2)cc1`, the IC50 was 186 nM.

Another experiment addresses Poly [ADP-ribose] polymerase 2 (Homo sapiens, UniProt Q9UGN5). In words: Inhibition of N-terminal His-tagged thioredoxin-fused human ARTD2 (1 to 583 residues) expressed in Escherichia coli Rosetta2 (DE3) using activated DNA as substrate after 1.5 hrs in presence of NAD+.
Conditions: not given
Consider `COc1ccc(C(N)=O)cc1`, for which the IC50 is 77000 nM.
For `NC(=O)c1ccc(OCc2ccccc2F)cc1`, the IC50 is > 100000 nM.
Take `NC(=O)c1ccc(Oc2ccc(C=O)cc2)cc1`: the IC50 is > 100000 nM.
With `NC(=O)c1ccc(Oc2ccc(C(=O)O)cc2)cc1`, the IC50 is > 100000 nM.

Another experiment addresses T2, Protein mono-ADP-ribosyltransferase PARP3 (Homo sapiens, UniProt Q9Y6F1).
T2 sequence (Q9Y6F1 whole entry): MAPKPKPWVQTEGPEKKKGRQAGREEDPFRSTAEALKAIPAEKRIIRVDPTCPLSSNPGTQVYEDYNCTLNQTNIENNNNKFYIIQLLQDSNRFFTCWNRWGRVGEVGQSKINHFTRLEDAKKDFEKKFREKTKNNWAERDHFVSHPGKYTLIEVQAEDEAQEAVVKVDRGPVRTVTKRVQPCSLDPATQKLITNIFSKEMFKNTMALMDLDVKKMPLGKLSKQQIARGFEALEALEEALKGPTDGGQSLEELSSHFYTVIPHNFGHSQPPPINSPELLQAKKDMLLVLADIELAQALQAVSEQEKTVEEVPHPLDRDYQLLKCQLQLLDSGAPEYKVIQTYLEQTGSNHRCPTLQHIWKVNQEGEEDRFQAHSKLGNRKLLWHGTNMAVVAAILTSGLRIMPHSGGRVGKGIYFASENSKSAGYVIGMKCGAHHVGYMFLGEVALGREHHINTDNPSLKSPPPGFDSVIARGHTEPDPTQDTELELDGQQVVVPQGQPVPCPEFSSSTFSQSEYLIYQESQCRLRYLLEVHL
The experiment is described as follows: Inhibition of N-terminal His-tagged thioredoxin-fused human ARTD3 (1 to 533 residues) expressed in Escherichia coli Rosetta2 (DE3) using DNA as substrate after 3 hrs in presence of NAD+.
Conditions: not given
As for `COc1ccc(C(N)=O)cc1`, the IC50 was > 100000 nM.
`NC(=O)c1ccc(OCc2ccccc2F)cc1`: the IC50 was > 100000 nM.
On the same count and under the same terms, in the case of `NC(=O)c1ccc(Oc2ccc(C=O)cc2)cc1` it was 86000 nM; in that of `NC(=O)c1ccc(Oc2ccc(C(=O)O)cc2)cc1`, > 100000 nM.

In a further experiment the target is T3, Protein mono-ADP-ribosyltransferase PARP10 (Homo sapiens) (UniProt Q53GL7).
T3 sequence (whole entry): T1 sequence (Q53GL7 whole entry)
The note with it: U2OS.
Description: Stabilization of ARTD10 in human U2OS cells assessed as increase in melting temperature at 10 uM by CESTA
For `NC(=O)c1ccc(OCc2ccccc2F)cc1`, the Tm lay within 54 to 56 °C.
Same read-out and setting: in the case of `NC(=O)c1ccc(Oc2ccc(C=O)cc2)cc1` it was 54 to 56 °C.

The next experiment deals with Protein mono-ADP-ribosyltransferase PARP9 (Homo sapiens) (UniProt Q8IXQ6).
Conditions: not given
On to `COc1ccc(C(N)=O)cc1`, for which the ΔTm is 0.15 °C.
On the same count and under the same terms, in the case of `NC(=O)c1ccc(OCc2ccccc2F)cc1` it was 0.76 °C.
Consider `NC(=O)c1ccc(Oc2ccc(C=O)cc2)cc1`, for which the ΔTm is 0.04 °C.
With `NC(=O)c1ccc(Oc2ccc(C(=O)O)cc2)cc1`, the ΔTm came out at 1.2 °C.

For another experiment, the target named is Zinc finger CCCH-type antiviral protein 1 (Homo sapiens) (UniProt Q7Z2W4).
Sequence of Zinc finger CCCH-type antiviral protein 1 (Homo sapiens) (Q7Z2W4 whole entry): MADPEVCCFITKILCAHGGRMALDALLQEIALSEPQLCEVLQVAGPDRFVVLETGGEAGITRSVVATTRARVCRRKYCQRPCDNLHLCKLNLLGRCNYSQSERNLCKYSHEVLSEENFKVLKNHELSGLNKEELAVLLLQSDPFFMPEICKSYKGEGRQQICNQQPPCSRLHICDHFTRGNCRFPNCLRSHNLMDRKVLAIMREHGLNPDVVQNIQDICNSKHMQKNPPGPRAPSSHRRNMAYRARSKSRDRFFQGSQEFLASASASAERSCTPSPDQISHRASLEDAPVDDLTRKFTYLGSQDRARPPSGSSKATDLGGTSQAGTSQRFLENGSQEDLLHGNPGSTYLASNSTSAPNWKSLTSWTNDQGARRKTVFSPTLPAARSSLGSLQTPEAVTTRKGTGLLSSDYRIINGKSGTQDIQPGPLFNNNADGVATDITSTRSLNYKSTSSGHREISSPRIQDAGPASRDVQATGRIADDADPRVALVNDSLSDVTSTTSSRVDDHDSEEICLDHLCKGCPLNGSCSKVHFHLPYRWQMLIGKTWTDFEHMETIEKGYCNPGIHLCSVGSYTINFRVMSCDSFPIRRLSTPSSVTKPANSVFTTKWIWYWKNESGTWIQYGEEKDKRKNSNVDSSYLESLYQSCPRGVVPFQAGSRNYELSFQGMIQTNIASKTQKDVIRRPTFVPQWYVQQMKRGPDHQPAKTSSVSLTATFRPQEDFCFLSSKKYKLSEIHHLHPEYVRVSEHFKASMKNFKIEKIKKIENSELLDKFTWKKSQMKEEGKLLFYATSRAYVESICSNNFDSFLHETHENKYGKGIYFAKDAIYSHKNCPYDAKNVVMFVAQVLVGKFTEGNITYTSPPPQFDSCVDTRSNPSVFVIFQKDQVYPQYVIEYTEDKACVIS
Conditions: not given
As to `COc1ccc(C(N)=O)cc1`, the thermal shift (ΔTm) came out at 0.44 °C.
The same measure, in the same setting: as for `NC(=O)c1ccc(OCc2ccccc2F)cc1`, the figure is 0.37 °C; as for `NC(=O)c1ccc(Oc2ccc(C=O)cc2)cc1`, 0.49 °C.
As for `NC(=O)c1ccc(Oc2ccc(C(=O)O)cc2)cc1`, the shift in melting temperature (ΔTm) was found to be 0.72 °C.
